Test results taken from patent publication US12398141B2 (SHANGHAI SYNERGY PHARMACEUTICAL SCIENCES CO., LTD, priority 2019, dated 2025).
Where two headings read alike, the source gives them in different places.

Key:
Format in all cases: biochemical
JAK1 = JAK1 (Homo sapiens (Human), UniProt P23458); assay: JAK1 LANCE Ultra kinase assay; details: for IC50: 38 uM ATP; for JAK2/JAK1: ratio of IC50 JAK2 to IC50 JAK1
Procedure: Inhibition test on activity of JAK kinase in vitro was carried out by the following methods.
JAK1 LANCE® Ultra assay, JAK2 LANCE® Ultra assay and JAK3 LANCE® Ultra assay were used to carry out the test separately, and kits of the above assays were supplied by PerkinElmer. […]
JAK1, JAK2 and JAK3 kinase, ATP and substrates were dissolved and diluted with buffers.
A test liquid was 2 nM Eu-W1024 anti-phosphotyrosine (PerkinElmer, AD0069). A stop buffer was 10 mM edetic acid (Intech, 1842C505).
2.5 μl of an 8-fold solution of the compound and 5 μl of a 4-fold solution of JAK1 or JAK2 or JAK3 kinase were added into a 384-well plate, respectively, and reacted for 10 minutes at room temperature. 2.5 μl of an 8-fold solution of ULight™-JAK-1 peptide/ATP was added and reacted for 90 minutes at room temperature. Finally, 5 μl of 4-fold edetic acid stop buffer and 5 μl of 4-fold test liquid of Eu-W1024 anti-phosphotyrosine were added and incubated for 60 minutes.
According to the formula: percentage of inhibition rate=(maximum value−transform value)/(maximum value−minimum value)×100, inhibition rate of each compound at various concentrations was calculated. The maximum value was the reference value of dimethyl sulfoxide added into the well plate, the minimum value was the blank value, and the transform value is the value obtained by the well of each compound. The IC50 values of the corresponding compounds were then obtained by fitting by using the XLFit fitting tool in excel.

JAK2 = JAK2 (Homo sapiens (Human), UniProt O60674); assay: JAK2 LANCE Ultra kinase assay; details: 12 uM ATP
JAK3 = JAK3 (Homo sapiens (Human), UniProt P52333); assay: JAK3 LANCE Ultra kinase assay
Sequence of JAK3 (P52333 whole entry): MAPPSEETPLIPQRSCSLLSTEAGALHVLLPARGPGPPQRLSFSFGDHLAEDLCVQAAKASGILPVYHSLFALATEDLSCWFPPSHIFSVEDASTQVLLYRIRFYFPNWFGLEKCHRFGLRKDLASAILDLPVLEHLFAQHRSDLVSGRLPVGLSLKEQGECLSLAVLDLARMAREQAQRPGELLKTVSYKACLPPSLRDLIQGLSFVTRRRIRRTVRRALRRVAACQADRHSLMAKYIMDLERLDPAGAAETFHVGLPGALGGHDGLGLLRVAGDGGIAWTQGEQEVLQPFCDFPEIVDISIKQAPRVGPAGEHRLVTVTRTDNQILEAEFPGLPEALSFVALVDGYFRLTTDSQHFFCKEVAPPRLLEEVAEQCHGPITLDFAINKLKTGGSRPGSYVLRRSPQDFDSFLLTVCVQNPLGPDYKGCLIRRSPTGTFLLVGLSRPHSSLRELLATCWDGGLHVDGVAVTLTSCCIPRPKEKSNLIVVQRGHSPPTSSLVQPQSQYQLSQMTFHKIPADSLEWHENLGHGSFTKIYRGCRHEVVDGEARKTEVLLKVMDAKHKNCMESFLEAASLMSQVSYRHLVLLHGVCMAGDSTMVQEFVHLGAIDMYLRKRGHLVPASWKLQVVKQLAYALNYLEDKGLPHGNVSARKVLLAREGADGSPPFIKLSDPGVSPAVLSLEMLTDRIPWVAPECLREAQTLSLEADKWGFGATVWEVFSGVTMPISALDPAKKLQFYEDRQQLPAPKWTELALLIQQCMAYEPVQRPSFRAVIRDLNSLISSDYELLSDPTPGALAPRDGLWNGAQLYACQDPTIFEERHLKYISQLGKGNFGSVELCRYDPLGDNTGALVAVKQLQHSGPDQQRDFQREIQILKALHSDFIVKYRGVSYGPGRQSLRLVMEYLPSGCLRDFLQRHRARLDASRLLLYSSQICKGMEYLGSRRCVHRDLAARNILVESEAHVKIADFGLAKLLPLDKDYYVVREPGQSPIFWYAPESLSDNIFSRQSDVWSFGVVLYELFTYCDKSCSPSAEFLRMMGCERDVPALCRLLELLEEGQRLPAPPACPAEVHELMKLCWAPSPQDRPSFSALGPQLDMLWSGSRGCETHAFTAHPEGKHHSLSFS

Sequence of JAK1 (P23458 whole entry): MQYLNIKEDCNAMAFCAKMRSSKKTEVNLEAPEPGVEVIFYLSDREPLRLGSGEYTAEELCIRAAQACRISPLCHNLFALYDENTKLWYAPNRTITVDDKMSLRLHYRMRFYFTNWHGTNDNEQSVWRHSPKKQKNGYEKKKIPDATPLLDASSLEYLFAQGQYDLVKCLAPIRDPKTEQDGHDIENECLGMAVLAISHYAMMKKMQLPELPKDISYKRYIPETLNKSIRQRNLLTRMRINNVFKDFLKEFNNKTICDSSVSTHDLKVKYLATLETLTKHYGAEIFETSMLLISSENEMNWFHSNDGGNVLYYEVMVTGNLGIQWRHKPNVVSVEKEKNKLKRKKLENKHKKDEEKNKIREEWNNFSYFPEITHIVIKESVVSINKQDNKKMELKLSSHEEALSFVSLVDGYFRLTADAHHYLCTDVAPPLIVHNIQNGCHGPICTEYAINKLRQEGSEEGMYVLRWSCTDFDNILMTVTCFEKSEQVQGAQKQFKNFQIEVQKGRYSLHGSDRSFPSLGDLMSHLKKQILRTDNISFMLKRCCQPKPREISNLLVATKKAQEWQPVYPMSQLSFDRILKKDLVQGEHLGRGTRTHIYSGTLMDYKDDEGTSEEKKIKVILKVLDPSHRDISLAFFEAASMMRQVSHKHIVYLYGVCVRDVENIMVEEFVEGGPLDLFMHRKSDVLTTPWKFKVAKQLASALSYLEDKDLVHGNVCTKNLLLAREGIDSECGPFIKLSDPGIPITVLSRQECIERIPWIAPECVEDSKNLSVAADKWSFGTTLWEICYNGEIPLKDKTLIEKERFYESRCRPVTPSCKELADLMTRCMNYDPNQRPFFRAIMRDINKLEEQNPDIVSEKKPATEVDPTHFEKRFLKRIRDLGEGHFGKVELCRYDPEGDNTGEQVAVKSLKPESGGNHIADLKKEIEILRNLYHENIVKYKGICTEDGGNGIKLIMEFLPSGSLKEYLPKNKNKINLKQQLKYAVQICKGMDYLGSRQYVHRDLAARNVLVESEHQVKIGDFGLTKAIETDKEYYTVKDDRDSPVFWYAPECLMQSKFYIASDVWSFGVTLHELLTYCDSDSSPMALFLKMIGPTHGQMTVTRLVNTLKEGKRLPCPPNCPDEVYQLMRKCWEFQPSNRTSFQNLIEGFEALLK
Sequence of JAK2 (O60674 whole entry): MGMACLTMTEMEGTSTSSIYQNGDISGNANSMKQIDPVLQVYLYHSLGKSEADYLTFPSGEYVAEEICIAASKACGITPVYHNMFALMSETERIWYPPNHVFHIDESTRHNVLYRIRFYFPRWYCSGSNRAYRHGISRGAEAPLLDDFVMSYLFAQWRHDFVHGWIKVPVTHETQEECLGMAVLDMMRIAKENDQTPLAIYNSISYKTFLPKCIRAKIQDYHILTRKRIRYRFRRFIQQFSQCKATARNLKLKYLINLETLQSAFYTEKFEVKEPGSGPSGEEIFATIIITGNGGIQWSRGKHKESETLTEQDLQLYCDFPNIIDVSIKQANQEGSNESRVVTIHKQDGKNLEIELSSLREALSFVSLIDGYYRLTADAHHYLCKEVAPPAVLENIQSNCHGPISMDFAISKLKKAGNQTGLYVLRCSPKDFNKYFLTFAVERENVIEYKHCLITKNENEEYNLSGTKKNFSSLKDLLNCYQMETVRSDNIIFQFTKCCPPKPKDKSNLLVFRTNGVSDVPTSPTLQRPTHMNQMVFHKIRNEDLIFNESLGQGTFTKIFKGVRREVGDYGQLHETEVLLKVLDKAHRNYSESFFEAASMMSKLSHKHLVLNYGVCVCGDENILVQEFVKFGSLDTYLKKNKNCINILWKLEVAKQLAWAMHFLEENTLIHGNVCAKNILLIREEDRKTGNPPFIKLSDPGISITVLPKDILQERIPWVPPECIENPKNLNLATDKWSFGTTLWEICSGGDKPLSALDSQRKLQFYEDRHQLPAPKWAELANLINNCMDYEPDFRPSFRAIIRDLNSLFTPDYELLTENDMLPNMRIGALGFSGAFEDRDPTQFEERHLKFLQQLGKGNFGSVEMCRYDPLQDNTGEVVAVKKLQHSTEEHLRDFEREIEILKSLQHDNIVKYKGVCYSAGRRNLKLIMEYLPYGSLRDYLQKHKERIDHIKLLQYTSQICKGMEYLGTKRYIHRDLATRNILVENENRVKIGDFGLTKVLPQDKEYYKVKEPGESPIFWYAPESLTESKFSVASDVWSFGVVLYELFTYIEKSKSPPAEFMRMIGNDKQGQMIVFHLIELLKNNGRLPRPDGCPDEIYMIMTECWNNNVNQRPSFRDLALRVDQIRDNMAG

`CN(c1c(C#N)cnc2[nH]ccc12)[C@H]1C[C@@H]2CN(S(=O)(=O)c3cccc(C(F)(F)F)c3)C[C@@H]2C1` [Compound H24] gave an IC50 (JAK1) of 5.1 nM, a JAK2/JAK1 (JAK1) of 2.40 and an IC50 (JAK2) of 12.6 nM. The IC50 (JAK3; 4 uM ATP) was 28 nM.
For `COCCOc1nsc(NC(=O)N2C[C@H]3C[C@H](Nc4c(C#N)cnc5[nH]ccc45)C[C@H]3C2)n1` [Compound H52, (3aR,5S,6aS)-5-((5-cyano-1H-pyrrolo[2,3-b]pyridin-4-yl)amino)-N-(3-(2-methoxyethoxy)-1,2,4-thiadiazole-5-yl)hexahydrocyclopenta[c]pyrrole-2(1H)-carboxamide], the IC50 (JAK1) was 0.79 nM, the JAK2/JAK1 (JAK1) was 10.06 and the IC50 (JAK2) was 7.95 nM. For the same molecule, the IC50 (JAK3; 4 uM ATP) was 69 nM.
`CCC1CN(C(=O)NCC2CC2)CC1Nc1c(C#N)cnc2[nH]ccc12` (stereo not drawn) [Compound H82, 3-((5-cyano-1H-pyrrolo[2,3-b]pyridin-4-yl)amino)-4-ethyl-N-(cyclopropylmethyl)pyrrolidin-1-carboxamide] was tested, and the IC50 (JAK1) was 8.9 nM, the JAK2/JAK1 (JAK1) was 7.75 and the IC50 (JAK2) was 69 nM. It also gave an IC50 (JAK3; 4 uM ATP) of 172 nM.
`CN(c1c(C#N)cnc2[nH]ccc12)C1CC(NS(=O)(=O)c2ccc(C(F)(F)F)cc2)C1` (stereo not drawn) [Compound H16, (cis)-4-{[3-(4-trifluoromethylbenzenesulfonamido)-cyclobutyl-1-yl]-methyl-amino}-1H-pyrrolo[2,3-b]pyridin-5-carbonitrile] was tested, and the IC50 (JAK1) was 9.16 nM, the JAK2/JAK1 (JAK1) was 14.41 and the IC50 (JAK2) was 132 nM. The IC50 (JAK3; 4 uM ATP) was 633 nM.
Molecule `CC[C@@H]1CN(C(=O)Nc2nc(OC)ns2)C[C@@H]1Nc1c(C#N)cnc2[nH]ccc12` [Compound H80, 4-(((cis)-4-ethyl-1-(3-methoxy-1,2,4-thiadiazole-5-aminocarbonyl)pyrrolidin-3-yl)amino)-1H-pyrrolo[2,3-b]pyridin-5-carbonitrile] has an IC50 (JAK1) of 2.9 nM, a JAK2/JAK1 (JAK1) of 6.41 and an IC50 (JAK2) of 18.6 nM. For the same molecule, the IC50 (JAK3; 4 uM ATP) was 152 nM.
`CCCS(=O)(=O)N[C@H]1C[C@@H](Nc2c(C#N)cnc3[nH]ccc23)C1` [Compound H46, (cis)-4-{[3-(propanesulfonamido)-cyclobutyl-1-yl]-amino}-1H-pyrrolo [2,3-b]pyridin-5-carbonitrile] was tested, and the IC50 (JAK1) was 1.13 nM, the JAK2/JAK1 (JAK1) was 8.67 and the IC50 (JAK2) was 9.8 nM. For the same molecule, the IC50 (JAK3; 4 uM ATP) was 68 nM.
`CN(c1c(C#N)cnc2[nH]ccc12)[C@H]1C[C@@H]2CN(S(=O)(=O)c3cccc(F)c3)C[C@@H]2C1` [Compound H28] showed an IC50 (JAK1) of 9.5 nM, a JAK2/JAK1 (JAK1) of 14.21 and an IC50 (JAK2) of 135 nM. The IC50 (JAK3; 4 uM ATP) was 220 nM.
Work on `COCc1nsc(NC(=O)N2C[C@H]3C[C@H](Nc4c(C#N)cnc5[nH]ccc45)C[C@H]3C2)n1` [Compound H57] yielded an IC50 (JAK1) of 0.89 nM, a JAK2/JAK1 (JAK1) of 7.19 and an IC50 (JAK2) of 6.4 nM. It also gave an IC50 (JAK3; 4 uM ATP) of 48 nM.
`CC[C@@H]1CN(C(=O)NCC(C)(F)F)C[C@@H]1Nc1c(C#N)cnc2[nH]ccc12` (relative stereo) [Compound H89, (cis)-3-((5-cyano-1H-pyrrolo[2,3-b]pyridin-4-yl)amino)-N-(2,2-difluoropropyl)-4-ethylpyrrolidin-1-carboxamide] showed an IC50 (JAK1) of 2.9 nM, a JAK2/JAK1 (JAK1) of 6.79 and an IC50 (JAK2) of 19.7 nM. For the same molecule, the IC50 (JAK3; 4 uM ATP) was 241 nM.
`CNCC1CCN(S(=O)(=O)C[C@H]2CC[C@H](N(C)c3c(C#N)cnc4[nH]ccc34)CC2)C1` (stereo partly drawn) [Compound H67, 4-(methyl-(trans-4-(((3-((methylamino)methyl)pyrrolidin-1-yl)sulfonyl)methyl)cyclohexyl)amino)-1H-pyrrolo[2,3-b]pyridin-5-carbonitrile] showed an IC50 (JAK1) of 0.67 nM, a JAK2/JAK1 (JAK1) of 14.18 and an IC50 (JAK2) of 9.5 nM. The IC50 (JAK3; 4 uM ATP) was 76 nM.
Molecule `CC[C@@H]1CC(NS(=O)(=O)c2cccc(C(F)(F)F)c2)C[C@@H]1Nc1c(C#N)cnc2[nH]ccc12` (stereo partly drawn) [Compound H60, N-(3-((5-cyano-1H-pyrrolo[2,3-b]pyridin-4-yl)amino)-4-ethylcyclopentyl)-3-(trifluoromethyl)benzsulfamide] has an IC50 (JAK1) of 5.6 nM, a JAK2/JAK1 (JAK1) of 6.25 and an IC50 (JAK2) of 35 nM. The IC50 (JAK3; 4 uM ATP) was 153 nM.
`CC[C@@H]1CN(C(=O)NCC(C)C)C[C@@H]1Nc1c(C#N)cnc2[nH]ccc12` (relative stereo) [Compound H79, (cis)-3-((5-cyano-1H-pyrrolo[2,3-b]pyridin-4-yl)amino)-4-ethyl-N-isobutylpyrrolidin-1-carboxamide] was tested, and the IC50 (JAK1) was 0.96 nM, the JAK2/JAK1 (JAK1) was 6.77 and the IC50 (JAK2) was 6.5 nM. It also gave an IC50 (JAK3; 4 uM ATP) of 59 nM.
In the case of `CCC1CN(C(=O)CC#N)CC1Nc1c(C#N)cnc2[nH]ccc12` (stereo not drawn) [Compound H78, 4-((4-ethyl-1-(2-cyanoacetyl)pyrrolidin-3-yl)amino)-1H-pyrrolo[2,3-b]pyridin-5-carbonitrile], the IC50 (JAK1) was 6 nM, the JAK2/JAK1 (JAK1) was 2.67 and the IC50 (JAK2) was 16 nM. It also gave an IC50 (JAK3; 4 uM ATP) of 42 nM.
`CCOc1nc(NC(=O)N2C[C@H]3C[C@H](N(C)c4c(C#N)cnc5[nH]ccc45)C[C@H]3C2)no1` [Compound H48, (3aR,5s,6aS)-5-((5-cyano-1H-pyrrolo[2,3-b]pyridin-4-yl)(methyl)amino)-N-(5-ethoxy-1,2,4-oxadiazole-3-yl)hexahydrocyclopentadiene[c]pyrrole-2(1H)-carboxamide] was tested, and the IC50 (JAK1) was 0.86 nM, the JAK2/JAK1 (JAK1) was 8.60 and the IC50 (JAK2) was 7.4 nM. It also gave an IC50 (JAK3; 4 uM ATP) of 56 nM.
`CC[C@@H]1CN(C(=O)NCC#N)C[C@@H]1Nc1c(C(F)(F)F)cnc2[nH]ccc12` [Compound H93, (cis)-3-ethyl-N-(cyanmethyl)-4-((5-(trifluoromethyl)-1H-pyrrolo[2,3-b]pyridin-4-yl)amino)pyrrolidin-1-carboxamide] showed an IC50 (JAK1) of 0.64 nM, a JAK2/JAK1 (JAK1) of 11.09 and an IC50 (JAK2) of 7.1 nM. It also gave an IC50 (JAK3; 4 uM ATP) of 79 nM.
For `CC[C@@H]1CN(C(=O)NCC(C)(C)C)C[C@@H]1Nc1c(C#N)cnc2[nH]ccc12` (relative stereo) [Compound H86, (cis)-3-((5-cyano-1H-pyrrolo[2,3-b]pyridin-4-yl)amino)-4-ethyl-N-neopentyl-pyrrolidin-1-carboxamide], the IC50 (JAK1) was 1.41 nM, the JAK2/JAK1 (JAK1) was 20.57 and the IC50 (JAK2) was 29 nM. The IC50 (JAK3; 4 uM ATP) was 169 nM.
`N#Cc1cn2c(n1)CC(Nc1c(C#N)cnc3[nH]ccc13)CC2` (stereo not drawn) [Compound H90, 7-((5-cyano-1H-pyrrolo[2,3-b]pyridin-4-yl)amino)-5,6,7,8-tetrahydroimidazo[1,2-a]pyridin-2-carbonitrile] showed an IC50 (JAK1) of 0.76 nM, a JAK2/JAK1 (JAK1) of 7.51 and an IC50 (JAK2) of 5.71 nM. The IC50 (JAK3; 4 uM ATP) was 68 nM.
`CC[C@@H]1CN(C(=O)NC2CC2)C[C@@H]1Nc1c(C#N)cnc2[nH]ccc12` (relative stereo) [Compound H84, (cis)-3-((5-cyano-1H-pyrrolo[2,3-b]pyridin-4-yl)amino)-N-cyclopropyl-4-ethylpyrrolidin-1-carboxamide] showed an IC50 (JAK1) of 6.9 nM, a JAK2/JAK1 (JAK1) of 5.51 and an IC50 (JAK2) of 38 nM. It also gave an IC50 (JAK3; 4 uM ATP) of 387 nM.
For `CC[C@@H]1CC(NC(=O)CCC(F)(F)F)C[C@@H]1Nc1c(C#N)cnc2[nH]ccc12` (stereo in doubt) [Compound H59, N-(3-((5-cyano-1H-pyrrolo[2,3-b]pyridin-4-yl)amino)-4-ethylcyclopentyl)-4,4,4-trifluorobutanamide], the IC50 (JAK1) was 2.06 nM, the JAK2/JAK1 (JAK1) was 5.63 and the IC50 (JAK2) was 11.6 nM. For the same molecule, the IC50 (JAK3; 4 uM ATP) was 39.6 nM.
`CC[C@@H]1CN(C(=O)CCC(F)(F)F)C[C@@H]1Nc1c(C#N)cnc2[nH]ccc12` (relative stereo) [Compound H77, 4-(((cis)-4-ethyl-1-(4,4,4-trifluorobutyryl)pyrrolidin-3-yl)amino)-1H-pyrrolo[2,3-b]pyridin-5-carbonitrile] gave an IC50 (JAK1) of 4.2 nM, a JAK2/JAK1 (JAK1) of 11.67 and an IC50 (JAK2) of 49 nM. The IC50 (JAK3; 4 uM ATP) was 273 nM.
For `N#Cc1cnc2[nH]ccc2c1N[C@H]1CN(C(=O)NCC(F)(F)F)CC12CC2` [Compound H72, (R)-7-((5-cyano-1H-pyrrolo[2,3-b]pyridin-4-yl)amino)-N-(2,2,2-trifluoroethyl)-5-azaspiro[2.4]heptane-5-carboxamide], the IC50 (JAK1) was 10.3 nM, the JAK2/JAK1 (JAK1) was 2.82 and the IC50 (JAK2) was 29 nM. For the same molecule, the IC50 (JAK3; 4 uM ATP) was 75 nM.
With `CN(c1c(C#N)cnc2[nH]ccc12)[C@H]1C[C@@H]2CN(S(=O)(=O)CCC(F)(F)F)C[C@@H]2C1` [Compound H27] the IC50 (JAK1) was 5.6 nM, the JAK2/JAK1 (JAK1) was 5.89 and the IC50 (JAK2) was 33 nM. The IC50 (JAK3; 4 uM ATP) was 171 nM.
With `C[C@H](O)C(=O)N1C[C@H]2C[C@@H](N(C)c3c(C#N)cnc4[nH]ccc34)C[C@H]2C1` [Compound H06, (3aR,5R,6aS)-4-{[2-((2S)-2-hydroxypropionyl)-hexahydrocyclopenta[c]pyrrole-5-yl]-methyl-amino}-1H-pyrrolo[2,3-b]pyridin-5-carbonitrile] the IC50 (JAK1) was 6.68 nM, the IC50 (JAK2) was 29.9 nM and the IC50 (JAK3; 4 uM ATP) was 96 nM.
`CC[C@@H]1CN(C(=O)NC(C)C)C[C@@H]1Nc1c(C#N)cnc2[nH]ccc12` (relative stereo) [Compound H75] was tested, and the IC50 (JAK2) was 17.3 nM and the IC50 (JAK3) was 89 nM.
